PMC9697025, “Discovery of N-Containing (-)-Borneol Esters as Respiratory Syncytial Virus Fusion Inhibitors” (Pharmaceuticals, 2022)

How the values were obtained:
RSV A strain A2 = assay: In vitro antiviral assay against RSV A strain A2 in HEp-2 cells (ELISA, virus titer); assay type: cell-based, respiratory syncytial virus; conditions: for IC50: human respiratory syncytial virus, HEp-2, 50% decrease in virus replication, RSV A strain A2 in HEp-2 cells, mean ± SD; for SI: selectivity index, CC50/IC50 ratio, RSV A2 / HEp-2
RSV A strain = conditions: for effect on viral titer, time-of-addition: compound added at 1 h post infection; for inhibitory activity, time-of-addition: compound added at later time points (after 2 h post infection); for time of addition up to which antiviral activity was maintained: post infection
[1] = MTT cytotoxicity assay with non-infected HEp2 cells; conditions: human
RSV = assay: Temperature shift assay (virus attachment at 4 °C vs post-binding); conditions: unbound virus washed away, compound added before shift to 37 °C
rVSV-ΔG-MarV-GP = conditions: CC50/IC50MarV-GP, HEK293T cells ref 12,13; cited from earlier work
rVSV-ΔG-EboV-GP = conditions: CC50/IC50EboV-GP, HEK293T cells ref 12,13; cited from earlier work
[2] = system: A/Puerto Rico/8/34 (H1N1) virus; set-up: method as in PMID 30108810; conditions: CC50/IC50H1N1, A/Puerto Rico/8/34 (H1N1) ref 15; cited from earlier work
Vaccinia virus = conditions: CC50/IC50VACV ref 16; cited from earlier work

Row | SMILES | IC50 (RSV A strain A2) [µM] | SI (RSV A strain A2) | CC50 at 24 h [1] [µM] | other results
1 | CN(C)CCC(=O)O[C@@H]1C[C@@H]2CC[C@@]1(C)C2(C)C [Compound 3b] | 8.9 ± 2.4 | 111 | 983 ± 44.2 | effect on viral titer, time-of-addition (RSV A strain): significant reduction in viral titer; inhibitory activity, time-of-addition (RSV A strain): lost their inhibitory activity; time of addition up to which antiviral activity was maintained (RSV A strain): up to 2 h; anti-RSV activity, temperature shift conditions (B) (RSV): antiviral activity was maintained
2 | CN1CCN(CCC(=O)O[C@@H]2C[C@@H]3CC[C@@]2(C)C3(C)C)CC1 [Compound 9b] | 17.2 ± 1.9 | 10 | 169 ± 12.1 | –
3 | CN1CCN(CCC(=O)OC2CC3CCC2(C)C3(C)C)CC1 (stereo not drawn) [I (n=2)] | – | – | – | SIMarV-GP (rVSV-ΔG-MarV-GP): ^a SIMarV-GP = 20; SIEboV-GP (rVSV-ΔG-EboV-GP): ^b SIEboV-GP = 870; SIH1N1 [2]: ^c SIH1N1 = 25
4 | CC1(C)[C@H]2CC[C@]1(C)[C@H](OC(=O)CCN1CCN(c3ccccc3F)CC1)C2 [Compound 15b, (1S,2R,4S)-1,7,7-trimethylbicyclo [2.2.1]heptan-2-yl 3-(4-(2-fluorophenyl)piperazin-1-yl)propanoate] | 8.2 ± 0.8 | 2 | 20.1 ± 12.1 | –
5 | CN1CCN(CCCC(=O)O[C@@H]2C[C@@H]3CC[C@@]2(C)C3(C)C)CC1 [Compound 9c] | 5.1 ± 0.8 | 39 | 198 ± 13.6 | –
6 | CN(C)CCCC(=O)O[C@@H]1C[C@@H]2CC[C@@]1(C)C2(C)C [Compound 3c] | 23.9 ± 3.7 | 10 | 228 ± 23.5 | –
7 | CC1(C)[C@H]2CC[C@]1(C)[C@H](OC(=O)CCCN1CCC(Cc3ccccc3)CC1)C2 [Compound 13c, (1S,2R,4S)-1,7,7-trimethylbicyclo [2.2.1]heptan-2-yl 4-(4-benzylpiperidin-1-yl)butanoate] | 7.3 ± 0.6 | 5 | 40.2 ± 5.1 | –
8 | CC1(C)[C@H]2CC[C@]1(C)[C@H](OC(=O)CN1CCN(Cc3ccccc3)CC1)C2 [Compound 11a] | 21.6 ± 2.6 | 2 | 51.3 ± 4.9 | –
9 | CCN1CCN(CCC(=O)OC2CC3CCC2(C)C3(C)C)CC1 (stereo not drawn) [II (n=2)] | – | – | – | SIMarV-GP (rVSV-ΔG-MarV-GP): ^a SIMarV-GP = 47; SIEboV-GP (rVSV-ΔG-EboV-GP): ^b SIEboV-GP = 170; SIH1N1 [2]: ^c SIH1N1 = 12
10 | CC1(C)[C@H]2CC[C@]1(C)[C@H](OC(=O)CCCN1CCN(Cc3ccccc3)CC1)C2 [Compound 11c] | 25.1 ± 3.5 | 3 | 82.8 ± 7.9 | –
11 | CCN(CC)CC(=O)O[C@@H]1C[C@@H]2CC[C@@]1(C)C2(C)C [Compound 4a] | 355 ± 51.1 | 2 | 669 ± 56.4 | –
12 | CC1(C)[C@H]2CC[C@]1(C)[C@H](OC(=O)CN1CCN(c3ccccc3)CC1)C2 [Compound 14a, (1S,2R,4S)-1,7,7-Trimethylbicyclo [2.2.1]heptan-2-yl 2-(4-phenylpiperazin-1-yl)acetate] | 4.6 ± 1.1 | 6 | 26.4 ± 3.8 | –
13 | CC1(C)[C@H]2CC[C@]1(C)[C@H](OC(=O)CCCN1CCN(c3ccccc3F)CC1)C2 [Compound 15c, (1S,2R,4S)-1,7,7-trimethylbicyclo [2.2.1]heptan-2-yl 4-(4-(2-fluorophenyl)piperazin-1-yl)butanoate] | 14.7 ± 2.1 | 2 | 27.8 ± 7.4 | –
14 | CN1CCN(CC(=O)OC2CC3CCC2(C)C3(C)C)CC1 (stereo not drawn) [I (n=1)] | – | – | – | SIMarV-GP (rVSV-ΔG-MarV-GP): ^a SIMarV-GP = 14; SIEboV-GP (rVSV-ΔG-EboV-GP): ^b SIEboV-GP = 46; SIH1N1 [2]: ^c SIH1N1 = 23
15 | CCN1CCN(CCCC(=O)O[C@@H]2C[C@@H]3CC[C@@]2(C)C3(C)C)CC1 [Compound 10c] | 9.8 ± 2.5 | 21 | 208 ± 21.4 | –
16 | CC1CCN(CCC(=O)O[C@@H]2C[C@@H]3CC[C@@]2(C)C3(C)C)CC1 [Compound 7b] | 6.2 ± 2.1 | 26 | 159 ± 17.1 | –
17 | CCN1CCN(CCC(=O)O[C@@H]2C[C@@H]3CC[C@@]2(C)C3(C)C)CC1 [Compound 10b] | 5.9 ± 1.4 | 20 | 117 ± 11.7 | –
18 | CC1(C)[C@H]2CC[C@]1(C)[C@H](OC(=O)CN1CCCCCC1)C2 [Compound 8a] | 61.3 ± 3.2 | 1 | 85.2 ± 5.6 | –
19 | CC1(C)[C@H]2CC[C@]1(C)[C@H](OC(=O)CCCN1CCCCC1)C2 [Compound 6c] | 39 ± 4.1 | 3 | 117 ± 11.1 | –
20 | CCN(CC)CCCC(=O)O[C@@H]1C[C@@H]2CC[C@@]1(C)C2(C)C [Compound 4c] | 30.5 ± 2.9 | 5 | 152 ± 12.1 | –

Row | SMILES | IC50 (RSV A strain A2) [µM] | SI (RSV A strain A2) | CC50 at 24 h [1] [µM] | other results
21 | CC1(C)[C@H]2CC[C@]1(C)[C@H](OC(=O)CN1CCSCC1)C2 [Compound 12a, (1S,2R,4S)-1,7,7-Trimethylbicyclo [2.2.1]heptan-2-yl 2-thiomorpholinoacetate] | 69.6 ± 16.2 | 2 | 126 ± 10.5 | –
22 | CC1(C)[C@H]2CC[C@]1(C)[C@H](OC(=O)CCCN1CCCCCC1)C2 [Compound 8c] | 34.2 ± 1.1 | 5 | 159 ± 12.4 | –
23 | CC1CCN(CCCC(=O)O[C@@H]2C[C@@H]3CC[C@@]2(C)C3(C)C)CC1 [Compound 7c] | 19.9 ± 2.3 | 3 | 59.1 ± 4.8 | –
24 | CN1CCN(CC(=O)O[C@@H]2C[C@@H]3CC[C@@]2(C)C3(C)C)CC1 [Compound 9a] | 13.9 ± 2.4 | 19 | 267 ± 16.5 | –
25 | CCN1CCN(CC(=O)O[C@@H]2C[C@@H]3CC[C@@]2(C)C3(C)C)CC1 [Compound 10a] | 57.7 ± 2.2 | 4 | 217 ± 18.9 | –
26 | CC1(C)[C@H]2CC[C@]1(C)[C@H](OC(=O)CCN1CCN(Cc3ccccc3)CC1)C2 [Compound 11b] | 46.8 ± 7.2 | 1 | 49.4 ± 5.6 | –
27 | CC1(C)[C@H]2CC[C@]1(C)[C@H](OC(=O)CCCN1CCOCC1)C2 [Compound 5c] | 5.8 ± 0.9 | 53 | 307 ± 24.1 | SIVACV (Vaccinia virus): ^d SIVACV = 23
28 | CC1(C)[C@H]2CC[C@]1(C)[C@H](OC(=O)CCCN1CCN(c3ccccc3)CC1)C2 [Compound 14c, (1S,2R,4S)-1,7,7-trimethylbicyclo [2.2.1]heptan-2-yl 4-(4-phenylpiperazin-1-yl)butanoate] | 12 ± 2 | 2 | 23.9 ± 8.7 | –
29 | CC1(C)[C@H]2CC[C@]1(C)[C@H](OC(=O)CCN1CCCCCC1)C2 [Compound 8b] | 97.6 ± 8.9 | 3 | 345 ± 24.6 | –
30 | CC1(C)[C@H]2CC[C@]1(C)[C@H](OC(=O)CCN1CCC(Cc3ccccc3)CC1)C2 [Compound 13b, (1S,2R,4S)-1,7,7-trimethylbicyclo [2.2.1]heptan-2-yl 3-(4-benzylpiperidin-1-yl)propanoate] | 14.9 ± 1 | 2 | 25.5 ± 11.4 | –
31 | CC1(C)[C@H]2CC[C@]1(C)[C@H](OC(=O)CN1CCCCC1)C2 [Compound 6a] | 41.9 ± 3.1 | 3 | 129 ± 9.8 | –
32 | CC1(C)[C@H]2CC[C@]1(C)[C@H](OC(=O)CN1CCC(Cc3ccccc3)CC1)C2 [Compound 13a, (1S,2R,4S)-1,7,7-trimethylbicyclo [2.2.1]heptan-2-yl 2-(4-benzylpiperidin-1-yl)acetate] | 21.6 ± 1.8 | 5 | 116 ± 13.4 | –
33 | CC1(C)[C@H]2CC[C@]1(C)[C@H](OC(=O)CCN1CCSCC1)C2 [Compound 12b, (1S,2R,4S)-1,7,7-trimethylbicyclo [2.2.1]heptan-2-yl 3-thiomorpholinopropanoate] | 96.3 ± 3.5 | 1 | 86 ± 7.4 | –
34 | CC1(C)[C@H]2CC[C@]1(C)[C@H](OC(=O)CCN1CCCCC1)C2 [Compound 6b] | 14.6 ± 1.2 | 22 | 326 ± 45.6 | effect on viral titer, time-of-addition (RSV A strain): significant reduction in viral titer; inhibitory activity, time-of-addition (RSV A strain): lost their inhibitory activity; time of addition up to which antiviral activity was maintained (RSV A strain): up to 2 h; anti-RSV activity, temperature shift conditions (B) (RSV): antiviral activity was maintained
35 | CCN1CCN(CC(=O)OC2CC3CCC2(C)C3(C)C)CC1 (stereo not drawn) [II (n=1)] | – | – | – | SIMarV-GP (rVSV-ΔG-MarV-GP): ^a SIMarV-GP = 29; SIEboV-GP (rVSV-ΔG-EboV-GP): ^b SIEboV-GP = 80; SIH1N1 [2]: ^c SIH1N1 = 16
36 | CC1(C)[C@H]2CC[C@]1(C)[C@H](OC(=O)CCCN1CCSCC1)C2 [Compound 12c, (1S,2R,4S)-1,7,7-trimethylbicyclo [2.2.1]heptan-2-yl 4-thiomorpholinobutanoate] | 75.3 ± 7.9 | 1 | 56.5 ± 3.8 | –
37 | CCN(CC)CCC(=O)O[C@@H]1C[C@@H]2CC[C@@]1(C)C2(C)C [Compound 4b] | 99.5 ± 8.7 | 4 | 391 ± 23.1 | –
38 | CC1CCN(CC(=O)O[C@@H]2C[C@@H]3CC[C@@]2(C)C3(C)C)CC1 [Compound 7a] | 109 ± 10.7 | 4 | 399 ± 4.8 | –
39 | CN(C)CC(=O)O[C@@H]1C[C@@H]2CC[C@@]1(C)C2(C)C [Compound 3a] | 134 ± 19.5 | 4 | 497 ± 53.2 | –
40 | CC1(C)[C@H]2CC[C@]1(C)[C@H](OC(=O)CN1CCN(c3ccccc3F)CC1)C2 [Compound 15a, (1S,2R,4S)-1,7,7-trimethylbicyclo [2.2.1]heptan-2-yl 2-(4-(2-fluorophenyl)piperazin-1-yl)acetate] | 2.7 ± 0.7 | 10 | 27.5 ± 3.8 | –
